# Experimental data from patent publication US20250332293A1, “METHOD FOR MANUFACTURING BIOCOMPATIBLE NANOPARTICLES WITH A PEPTIDE CORE EXHIBITING SECOND- AND THIRD-HARMONIC SIGNAL GENERATION” (MAX-PLANCK-GESELLSCHAFT ZUR FÖRDERUNG DER WISSENSCHAFTEN E. …, priority 2016, published 2025).
# Residues, ends and D or L forms follow the SMILES beside them.
# How the values were obtained:
# [1] = Stability of SHG signal with regard to pH of the solvent; assay type: physicochemical
# Experimental: The disassembly occurs within minutes (˜5 minutes) after incubation in pH 4.
# Panel A: SHG signal after incubation of the nanoparticles for 72 hours in a buffer at pH 7. Same as in panel A, but at pH 6. Same as in panel A, but at pH 5. Panel D: same as in panel A, but at pH 4.
# In FIG. 16a, the effect of different pH values on the SHG signal intensity are shown as a diagram. The nanoparticles were incubated at different pH values for 72 hours (n=5). Representative images showing SHG signal intensity after the nanoparticles were incubated in buffers at FIG. 16b, pH 7, FIG. 16c, pH 6, FIG. 16d, pH 5, and FIG. 16e, pH 4. Scalebar, 10 μm. Mean±s.d. n.s., not significant (Ordinary one-way ANOVA with Tukey's multiple comparisons).
# [2] = Stability of SHG signal with regard to dilution; assay type: physicochemical; settings: 10 mg/ml (versus 100 mg/ml)
# Experimental: Panel A: LIVAGK peptides' SHG signal at a concentration of 100 mg/ml. Panel B: LIVAGK peptides' SHG signal at a concentration of 10 mg/ml.
# [3] = target: proteinase K (Parengyodontium album, UniProt P06873); test: Digestion of self-assembled structures by proteinase K, SHG image time series; assay type: in vitro ADME; settings: no polymer shell, aqueous solution with proteinase K, 0 to 60 minutes
# Sequence of proteinase K (P06873 106-384): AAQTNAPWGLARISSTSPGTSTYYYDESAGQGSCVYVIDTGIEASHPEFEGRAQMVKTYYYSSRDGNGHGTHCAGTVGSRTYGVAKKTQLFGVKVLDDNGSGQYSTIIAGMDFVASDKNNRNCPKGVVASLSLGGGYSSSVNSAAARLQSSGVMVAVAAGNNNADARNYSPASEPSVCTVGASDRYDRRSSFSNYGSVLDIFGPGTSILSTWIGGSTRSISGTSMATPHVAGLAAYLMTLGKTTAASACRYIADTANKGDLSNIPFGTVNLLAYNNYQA
# Experimental: The digestion 201 is facilitated by a proteinase K.
# The proteinase K digests the self-assembled structure into single phenylalanines.
# In FIG. 6 the corresponding SHG images of a digestion 201 of self-assembled structures of triphenylalanines 41 suspended in aqueous solution with proteinase K is shown. Here, image A) has been taken at time 0 minutes, image B) at 20 minutes, C) at 40 minutes and image D) after 60 minutes after adding proteinase K to the solution.
"assembly state / SHG signal at pH 4 ([1]; pH 4, 100 mg/ml)","time to disassembly after incubation in pH 4 ([1]; pH 4, 100 mg/ml)","assembly state / SHG signal at pH 7 ([1]; pH 7, 100 mg/ml)",SHG signal on dilution [2],Molecule,SHG signal during proteinase K digestion [3]
disassemble,~5 minutes,still assembled,no SHG signal can be observed,LIVAGK,
,,,,"N[C@@H](Cc1ccccc1)C(=O)N[C@@H](Cc1ccccc1)C(=O)N[C@@H](Cc1ccccc1)C(=O)O [triphenylalanine, Phe-Phe-Phe] (H-Phe-Phe-Phe-OH; N-terminus and C-terminus assumed)",decreasing over the course of time
